The source of these data is patent US7332486B2, “Phosphodiesterase 4 inhibitors” (Memory Pharmaceuticals Corp., priority 2002, dated 2008).

Data set [1] can be described thus: Solubility of the mesylate salt in H2O. It counts as physicochemical. As to the method:
To obtain the methansulphonate salt (mesylate salt), 4 ml of 0.1N CH3SO3H in EtOAc was added to a solution of 145 mg (0.4 mmol) 6-cyclopropylamino-9-(2-fluorobenzyl)-2-trifluoromethylpurine in EtOAc. Then, 1 ml of hexane was added to a warm solution and the resultant mixture was allowed to crystallize (within a refrigerator). The solid was collected to give 148 mg of the mesylate salt. […] M.p. 167.5-169.0 C; m.p. 114-118 C for free base.

In data set [2] the test system is rats. The experiment in a line: Radial arm maze task in rats, an in vivo test for learning and memory. The arrangement: species or system rat. The settings on record: MK-801 0.1 mg/kg, i.p., compared to control, p<0.01. The procedure:
The test was performed as previously described (Zhang, H.-T., Crissman, A. M., Dorairaj, N. R., Chandler, L. J., and O'Donnell, J. M., Neuropsychopharmacology, 2000, 23, 198-204.). Five days after initial housing, rats (male Spraque-Dawley (Harlan) weighing 250 to 350 g) were placed in the eight-arm radial maze (each arm was 60×10×12 cm high; the maze was elevated 70 cm above the floor) for acclimation for two days. Rats were then placed individually in the center of the maze for 5 minutes with food pellets placed close to the food wells, and then, the next day, in the wells at the end of the arms; 2 sessions a day were conducted. Next, four randomly selected arms were then baited with one pellet of food each. The rat was restricted to the center platform (26 cm in diameter) for 15 seconds and then allowed to move freely throughout the maze until it collected all pellets of food or 10 minutes passed, whichever came first. Four parameters were recorded: 1) working memory errors, i.e., entries into baited arms that had already been visited during the same trial; 2) reference memory errors, i.e., entries into unbaited arms; 3) total arm entries; and 4) the test duration (seconds), i.e., the time spent in the collection of all the pellets in the maze. […]
(§1) All data were analyzed by analyses of variance (ANOVA); individual comparisons were made using Kewman-Keuls tests. […]

Data set [3] concerns rats. The data set can be described thus: Passive avoidance in rats, an in vivo test for learning and memory. Set-up: species or system rat. The settings on record: MK-801 0.1 mg/kg pretreatment, compared to the vehicle, p<0.001, 24 hours after electric shock. The procedure: The test was performed as previously described (Zhang, H.-T., Crissman, A. M., Dorairaj, N. R., Chandler, L. J., and O'Donnell, J. M., Neuropsychopharmacology, 2000, 23, 198-204.). The apparatus (Model E10-16SC, Coulbourn Instruments, Allentown, Pa.) consisted of a two-compartment chamber with an illuminated compartment connected to a darkened compartment by a guillotine door. The floor of the darkened compartment consisted of stainless steel rods through which an electric foot-shock could be delivered from a constant current source. All experimental groups were first habituated to the apparatus the day before the start of the experiment. During the training, the rat (Male Spraque-Dawley (Harlan) weighing 250 to 350 g) was placed in the illuminated compartment facing away from the closed guillotine door for 1 minute before the door was raised. The latency for entering the darkened compartment was recorded. After the rat entered the darkened compartment, the door was closed and a 0.5 mA electric shock was administered for 3 seconds. […] The latency for entering the darkened compartment was recorded for up to 180 seconds, at which time the trial was terminated.
as §1

SMILES strings stand for the structures. Where a name gives a salt, the structure may show the parent alone.

As for `Fc1ccccc1Cn1cnc2c(NC3CC3)nc(C(F)(F)F)nc21` [Example 4 mesylate salt, 6-cyclopropylamino-9-(2-fluorobenzyl)-2-trifluoromethylpurine], the “solubility in H2O” value in data set [1] is “relatively insoluble”.
Turning to `C[C@]12N[C@H](Cc3ccccc31)c1ccccc12` [MK-801], in the data set on rats [2], the “frequency of reference memory errors” value was “increased” and the “frequency of working memory errors” value is “increased”. For the same molecule, the “latency for entering the darkened compartment (retention test)” value in the data set on rats [3] is “markedly reduced”.
